Values quoted from earlier work as cited in patent US11071776B2, “Nanoparticles for treatment of allergy” (priority 2012, dated 2021).

In the case of `CCCCCCCCCCCCCCCCCCCCCCCCCC(=O)N[C@@H](CO[C@H]1O[C@H](CO)[C@H](O)[C@H](O)[C@H]1O)[C@H](O)[C@H](O)CCCCCCCCCCCCCC` [αGalCer, alpha-galactosylceramide], the toxicity to humans is given as “not toxic to humans”.
